Data reported in paper PMC7139703, “Thiopurine Derivative-Induced Fpg/Nei DNA Glycosylase Inhibition: Structural, Dynamic and Functional Insights” (International Journal of Molecular Sciences, 2020).
Like-named read-outs stand apart in the source and are kept apart here.

Legend:
LlFpg/DNA complex C1 = biological target: T1, LlFpg/DNA complex C1 (Lactococcus lactis subsp. cremoris, UniProt P42371); test: EMSA, Fpg DNA binding to 14-mer [THF:C] duplex, complex C1 (lesion recognition complex, Fpg/DNA 1/1); settings: pre-incubation of Fpg 20 min at 4 °C; micromolar to millimolar inhibitor
T1 construct: made in house; host or cells: E. coli BH540 (fpg defective)

LlFpg = biological target: T2, LlFpg (Lactococcus lactis subsp. cremoris, UniProt P42371); test: Enzyme kinetics of 8-oxoG excision by LlFpg in the presence of 2TX (double-reciprocal, Dixon, Cornish-Bowden plots); format: biochemical
T2 construct: made in house; host or cells: E. coli BH540 (fpg defective)
Text: Kinetic experiments with LlFpg in the presence of 2TX partially support this last hypothesis (Figure S3). Although LlFpg was inhibited by 2TX, as was its E. coli homolog (EcFpg), the raw kinetic data from all the experiments appeared to be very complicated and difficult to interpret. […] In this case, no inhibitory constant (Ki) can be determined. This mechanism (also supported by the inhibition suppression by TCEP, Figure S2) is likely superimposed on other inhibitory mechanisms, a factor that makes it difficult to analyze kinetic data. To clarify, we separately analyzed kinetic data obtained for low and high 2TX concentrations (Figure S3). As expected, we observed a linear dependence of the reciprocal velocity (1/v) as a function of the reciprocal substrate concentrations (1/S) with and without the inhibitor. […] These values compare well with those determined previously for the excision of FapyG and 8-oxoG by EcFpg. […] This value is consistent with an interaction of 2TX in the active site of the enzyme. This inhibitory mechanism has not been previously described for the EcFpg enzyme. […] This mode of inhibition is in agreement with the possibility that 2TX can bind outside the active site on the free and bound enzyme. […]

mvNei1 = biological target: T3, mvNei1 (Acanthamoeba polyphaga mimivirus, UniProt Q5UQ00); test: EMSA, mvNei1 DNA binding to THF-containing DNA duplex; settings: Figure 4
T3 construct: 6His (C); made in house; host or cells: E. coli Rosetta2 (DE3)
Method: Figure 4 Comparative analysis of the effect of 2TX and TXn on Fpg/Nei DNA glycosylases. Enzyme activities were measured as described in the Figure 1 legend using 0.1 nM of a 5′-[^32P]-24-mer DNA duplex containing either an 8-oxoG opposite C for LlFpg or a […] (DHU) opposite G for hNeil1 and mvNei1. The DNA probe was incubated with the indicated protein concentration and 0.2 mM TXn compounds in the presence or absence of 1 mM dithiothreitol (DTT) and TCEP (a representative experiment is illustrated by the upper histograms). […]
The DNA binding activity was measured using EMSA [37]. […] After electrophoresis, the gels were dried and exposed overnight for autoradiography using a Typhoon imager and quantified with ImageQuant software. To evaluate the inhibitor effect of 2TX/TXn on the DNA binding activity of each Fpg/Nei enzyme, we first determined the experimental conditions required to bind 50% of the DNA probes without an inhibitor in the presence of 8% DMSO (limiting enzyme concentration). […] This effect was determined by the addition of the thio-compound in the pre-equilibrium mixture of the enzyme and DNA probe (30 min) and incubated for an additional 30 min at 4 °C. For the best inhibitors of Fpg, a dose-response curve was established from at least three independent experiments and the IC50 was determined (IC50^B, Table 1).

hNeil1 = hNeil1 (Homo sapiens, UniProt Q96FI4); test: EMSA, hNeil1 DNA binding to THF-containing DNA duplex; settings: Figure 4
Sequence of hNeil1 (Q96FI4 2-290 limits assumed): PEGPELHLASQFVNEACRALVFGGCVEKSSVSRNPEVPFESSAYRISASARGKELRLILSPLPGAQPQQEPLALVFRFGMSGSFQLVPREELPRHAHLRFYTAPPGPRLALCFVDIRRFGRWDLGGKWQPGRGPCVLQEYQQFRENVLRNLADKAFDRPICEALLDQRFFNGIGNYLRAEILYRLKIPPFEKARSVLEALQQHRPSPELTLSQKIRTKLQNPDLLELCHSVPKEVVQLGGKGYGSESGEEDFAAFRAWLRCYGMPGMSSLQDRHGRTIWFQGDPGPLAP

T2 sequence (P42371 2-273): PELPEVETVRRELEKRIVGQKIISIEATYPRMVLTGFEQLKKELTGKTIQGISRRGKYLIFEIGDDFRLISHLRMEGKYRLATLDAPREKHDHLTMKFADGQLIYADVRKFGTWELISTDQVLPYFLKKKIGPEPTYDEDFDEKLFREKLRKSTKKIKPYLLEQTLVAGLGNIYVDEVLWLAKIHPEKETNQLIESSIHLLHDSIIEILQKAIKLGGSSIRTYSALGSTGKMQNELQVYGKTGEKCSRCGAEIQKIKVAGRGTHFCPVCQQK
T1 sequence (P42371 2-273, one chain of several): as the sequence (P42371 2-273) above
T3 sequence (Q5UQ00 whole entry): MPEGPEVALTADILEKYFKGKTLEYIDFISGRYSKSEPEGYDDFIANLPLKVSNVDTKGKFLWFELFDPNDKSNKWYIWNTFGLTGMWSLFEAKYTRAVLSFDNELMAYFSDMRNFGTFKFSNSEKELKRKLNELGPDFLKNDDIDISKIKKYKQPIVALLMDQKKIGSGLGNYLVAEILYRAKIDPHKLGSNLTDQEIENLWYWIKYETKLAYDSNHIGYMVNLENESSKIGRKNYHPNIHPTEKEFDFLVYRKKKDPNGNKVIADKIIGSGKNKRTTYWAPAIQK

Row | SMILES | Fpg ability to bind DNA after pre-incubation with inhibitor (LlFpg/DNA complex C1) | Ki (LlFpg; high 2TX concentrations, uncompetitive, read-out: apparent Ki (Kiu)) [µM] | Ki (LlFpg; low 2TX concentrations, partially competitive, read-out: apparent Ki (Kic)) [µM] | effect on mvNei1 DNA binding activity (mvNei1) | effect on hNeil1 DNA binding activity (hNeil1)
1 | O=c1[nH]c(=S)[nH]c2nc[nH]c12 [Compound 2TX, 2-thioxanthine, reference compound] | completely abolished | 24.9 ± 6.56 | 2.19 ± 0.56 |  | 
2 | O=c1[nH]c(=S)[nH]c2[nH]c(=S)[nH]c12 [TX19] |  |  |  | apparent inhibitory effects | apparent inhibitory effects
